Biological target: c-Abl (Homo sapiens, UniProt P00519)
Assay: Dose-response inhibition assay, AbAStide time-resolved Tb3+ luminescence
Format: biochemical

Chain of c-Abl (P00519 whole entry): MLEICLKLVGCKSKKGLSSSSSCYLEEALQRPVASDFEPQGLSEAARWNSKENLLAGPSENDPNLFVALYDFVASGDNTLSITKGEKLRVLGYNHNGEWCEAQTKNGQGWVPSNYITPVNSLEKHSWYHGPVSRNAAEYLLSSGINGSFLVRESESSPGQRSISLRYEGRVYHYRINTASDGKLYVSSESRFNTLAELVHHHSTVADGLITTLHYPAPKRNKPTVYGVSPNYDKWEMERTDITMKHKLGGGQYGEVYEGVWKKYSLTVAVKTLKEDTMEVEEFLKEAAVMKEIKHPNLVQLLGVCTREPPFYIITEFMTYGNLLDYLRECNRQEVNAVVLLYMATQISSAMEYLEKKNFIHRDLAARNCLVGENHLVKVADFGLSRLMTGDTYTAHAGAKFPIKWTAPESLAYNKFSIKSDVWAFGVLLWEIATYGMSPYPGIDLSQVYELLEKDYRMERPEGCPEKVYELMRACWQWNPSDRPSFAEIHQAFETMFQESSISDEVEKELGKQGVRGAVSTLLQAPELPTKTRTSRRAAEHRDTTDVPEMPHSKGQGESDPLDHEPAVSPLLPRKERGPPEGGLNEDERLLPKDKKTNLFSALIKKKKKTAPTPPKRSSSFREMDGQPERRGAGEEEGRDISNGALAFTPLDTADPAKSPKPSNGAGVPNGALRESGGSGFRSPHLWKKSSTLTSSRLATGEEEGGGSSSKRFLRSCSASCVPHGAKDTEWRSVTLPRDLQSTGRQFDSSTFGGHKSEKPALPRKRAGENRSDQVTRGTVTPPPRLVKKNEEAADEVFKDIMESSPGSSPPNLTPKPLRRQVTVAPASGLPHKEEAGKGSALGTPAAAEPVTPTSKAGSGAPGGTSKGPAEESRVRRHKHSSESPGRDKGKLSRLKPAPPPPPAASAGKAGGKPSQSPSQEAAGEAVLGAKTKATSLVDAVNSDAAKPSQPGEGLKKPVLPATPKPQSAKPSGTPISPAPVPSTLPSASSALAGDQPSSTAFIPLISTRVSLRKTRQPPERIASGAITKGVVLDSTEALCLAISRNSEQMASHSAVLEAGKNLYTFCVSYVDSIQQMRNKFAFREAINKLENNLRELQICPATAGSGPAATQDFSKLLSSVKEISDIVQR

SMILES | IC50 | inhibition of Abl in dose-response kinase assay (AbAStide biosensor, negative compounds from HTS)
COc1cc(C=NNc2ncnc3c2cnn3-c2ccccc2)ccc1O [GW513184X] | 0.35 nM | 
COC(=O)Nc1nc2ccc(Sc3ccc(NC(=O)Nc4cc(C(F)(F)F)ccc4F)cc3)cc2[nH]1 [GW607049C] |  | no inhibition
COC(=O)Nc1nc2ccc(Oc3ccc(NC(=O)Nc4cc(C(F)(F)F)ccc4F)cc3)cc2s1 [GW693917A] | 0.52 nM | 
c1ccc(-c2n[nH]cc2-c2ccnc(-c3ccc(OCCn4ccnc4)cc3)c2)nc1 [GW711782X] | 1.91 nM | 
